Results taken from patent US20120029040A1, “ANIMAL ECTOPARASITE-CONTROLLING AGENT” (priority 2010, published 2012).

Experiments:
[1] = test system: ticks (Haemaphysalis longicornis); test: Dropping application against dog-infested ticks; type: in vivo
Experimental: Dropping Application Against Dog-Infested Ticks (Haemaphysalis longicornis)
(§1) Each (0.375 or 1.5 g) of the present hydrazide compound (1) and Comparative compound (52) was dissolved in diethylene glycol monoethyl ether (6.0 g) to prepare a test solution. Said test solution was directly dropped on the skin of the neck and back of the dog while pushing aside fur thereon at a rate of 0.1 ml per 1 kg of the dog's body weight (dose amount: 5 or 20 mg/kg). This is referred to as a test group. On the other hand, diethylene glycol monoethyl ether alone was applied dropwise to a placebo group.
Twenty eight (28) days later, 100 test ticks were deposited on each dog. Two (2) days after the deposit, the number of living ticks, which were infesting the dogs, was examined. When the examination was completed, all infested ticks were removed from the dogs. The infestation rate and control rate were calculated by the following formulae: […]
Method of calculating infestation rate and control rate at 30 days after the application:
Infestation rate (%) at X days after application=(number of living ticks at X days/number of ticks deposited)×100
(§2) Control rate (%) at X days after application=(infestation rate of placebo group at X days−infestation rate of test group at X days)/infestation rate of placebo group at X days×100
(§3) In addition, if an infestation rate of a test group is higher than a placebo group, then the control rate is deemed to be 0%.

[2] = test system: cat fleas (Ctenocephalides felis); test: Dropping application against cat-infested cat fleas; type: in vivo
Experimental: Dropping Application Against Cat-Infested Cat Fleas (Ctenocephalides felis)
The previous day before dropping application, 50 test fleas (cat flea adults) were deposited on a cat. Before the dropping application, infested fleas were counted.
as §1, with “Each (0.75” for “Each (0.375”, “the cat” for “the dog”, “thereon on” for “thereon”, “the cat's” for “the dog's”, “amount: 10” for “amount: 5”
Two (2) days after the application, the number of living fleas, which were infesting the cats, was examined. When the examination was completed, all infested fleas were removed from the cats.
(§4) Twenty eight (28) days later, 50 test fleas were re-deposited on each cat. Two (2) days after the re-deposit, the number of living fleas, which were infesting the cats, was examined. When the examination was completed, all infested fleas were removed from the cats. The infestation rate and control rate were calculated by the following formulae: […]
(i) Method of calculating infestation rate and control rate at the initial stage (2 days) after the application:
Infestation rate (%) at X days after application=(number of living fleas at X days/number of living fleas before application)×100
Control rate (%) at X days after application=(infestation rate of test group before application−infestation rate of test group at X days)/infestation rate of test group before application×100
(ii) Method of calculating infestation rate and control rate at 30 days after the application:
Infestation rate (%) at X days after application=(number of living fleas at X days/number of fleas deposited)×100
as §2, §3

[3] = test system: ticks (Haemaphysalis longicornis); test: Oral administration against dog-infested ticks; type: in vivo; settings: dog (beagle), oral gelatin capsules
Experimental: Oral Administration Against Dog-Infested Ticks (Haemaphysalis longicornis)
The previous day before oral administration, 100 test ticks (Haemaphysalis longicornis, young ticks) were deposited on a dog (beagle). Before the oral administration, infested ticks were counted.
Each of the present hydrazide compound (1) and Comparative compound (52) was filled into gelatin capsules, and forcibly and orally administered to a dog in a dose amount of 5 mg or 20 mg per 1 kg of the dog's body weight. This is referred to as a test group. On the other hand, gelatin capsules alone was orally administered to a placebo group.
Two (2) days after the administration, the number of living ticks, which were infesting the dogs, was examined.
When the examination was completed, all infested ticks were removed from the dogs. The infestation rate and control rate were calculated by the following formulae: […]
Method of calculating infestation rate and control rate at the initial stage (2 days) after the administration:
Infestation rate (%) at X days after administration=(number of living ticks at X days/number of living ticks before administration)×100
Control rate (%) at X days after administration (infestation rate of test group before administration−infestation rate of test group at X days)/infestation rate of test group before administration×100
as §3

[4] = test system: cat fleas (Ctenocephalides felis); test: Oral administration against cat-infested cat fleas; type: in vivo; settings: oral with cat food, dose 20 mg/kg
Experimental: Oral Administration Against Cat-Infested Cat Fleas (Ctenocephalides felis)
Each of the present hydrazide compound (1) and Comparative compound (52) was mixed with a cat food, and orally administered to a cat in a dose amount of 20 mg per 1 kg of the cat's body weight. This is referred to as a test group. On the other hand, the cat food alone was fed to a placebo group.
as §4, with “Forty two (42)” for “Twenty eight (28)”, “deposited” for “re-deposited”, “deposit,” for “re-deposit,”
Method of calculating infestation rate and control rate at 44 days after the administration:
Infestation rate (%) at X days after administration=(number of living fleas at X days/number of fleas deposited)×100
Control rate (%) at X days after administration=(infestation rate of placebo group at X days−infestation rate of test group at X days)/infestation rate of placebo group at X days×100
as §3

[5] = test system: ticks (Haemaphysalis longicornis); test: Pesticidal activity on ticks in filter paper test; settings: 48 h, 100 mg/m^2, non-blood-fed young ticks, 2 days
Experimental: Pesticidal Activity on Ticks (Haemaphysalis longicornis) in Filter Paper Test
Each (5 mg) of the present hydrazide compounds (1) and (2) was dissolved in acetone (10 mL), and this acetone solution (1 mL) was uniformly applied onto one side of a filter paper (TOYO No. 2; 5×10 cm; the surface area of the filter paper was 50 cm^2, and thus the amount of the present hydrazide compound applied was 100 mg/m^2). After drying, said filter paper was folded, and the both sides of the paper were clipped to form a bag. Into this bag, test ticks (Haemaphysalis longicornis, non-blood-fed young ticks, 10 ticks/group) were added, and the opening was clipped to seal the bag. Two (2) days later, the number of dead ticks was examined and the mortality was calculated by the following formula:
Mortality (%)=100×(number of dead ticks/number of ticks tested)

[6] = test system: cat fleas (Ctenocephalides felis); test: Oral administration against mouse-infested cat fleas; type: in vivo; settings: 20 mg in 10 mL test solution at 10 mL per 1 kg body weight, fleas deposited after administration, 2 days later
Experimental: Oral Administration Against Mouse-Infested Cat Fleas (Ctenocephalides Felis)
(§5) The present hydrazide compound (1) (20 mg) was dissolved in dimethylformamide (680 mg), and thereto a corn oil was added to prepare a test solution (10 mL). Said test solution was orally administered to the mouse at a rate of 10 mL per 1 kg of the body weight of the mouse with a gastric sonde. To a control group, a 7% dimethylformamide/corn oil solution alone was orally administered. Each administration was repeated 3 times per group.
After the oral administration, 20 cat fleas were deposited on each mouse. Two (2) days later, the number of cat fleas was examined and the mortality was calculated by the following formula:
Mortality (%)=100×(number of dead cat fleas/number of cat fleas tested)

[7] = test system: ticks (Haemaphysalis longicornis); test: Dropping application against mouse-infested ticks; type: in vivo; settings: 0.1% w/v solution 200 μL dropwise to whole body surface, 2 days after application
Experimental: Dropping Application Against Mouse-Infested Ticks (Haemaphysalis longicornis)
The previous day before dropping application, 30 test ticks (Haemaphysalis longicornis, young ticks) were deposited on a mouse. Before the dropping application, uninfested ticks were removed.
The present hydrazide compound (1) (5 mg) was dissolved in a mixture (5 mL) of propylene carbonate and diethylene glycol monoethyl ether in equal amounts to prepare a 0.1% w/v solution. Said solution (200 μL) was applied dropwise to the whole body surface of a mouse with a pipette. To a control group, the mixture (200 μL) alone was applied. Each application was repeated 3 times per group.
Two (2) days after the application, the number of dead ticks was examined and the mortality was calculated by the following formula:
Mortality (%)=100×(number of dead ticks/infested ticks before dropping application)

[8] = test system: ticks (Haemaphysalis longicornis); test: Oral administration against mouse-infested ticks; type: in vivo; settings: 20 mg in 10 mL test solution at 10 mL per 1 kg body weight, 2 days after administration
Experimental: Oral Administration Against Mouse-Infested Ticks (Haemaphysalis longicornis)
The previous day before oral administration, 30 test ticks (Haemaphysalis longicornis, young ticks) were deposited on a mouse. Before the oral administration, uninfested ticks were removed.
as §5, with “at the” for “at a”
Two (2) days after the administration, the number of dead ticks was examined and the mortality was calculated by the following formula:
Mortality (%)=100×(number of dead ticks/infested ticks before oral administration)

SMILES | Tick control rates (%) at 30 days after the application ([1]; dose 5 mg/kg) [%] | Flea control rates (%) at 2 days after the application ([2]; dose 10 mg/kg) [%] | Flea control rates (%) at 30 days after the application ([2]; dose 10 mg/kg) [%] | Tick control rates (%) at 2 days after the application ([3]; dose 5 mg/kg) [%] | Flea control rates (%) at 44 days after the administration [4] [%] | mortality at 100 mg/m2 [5] [%] | Tick control rates (%) at 30 days after the application ([1]; dose 20 mg/kg) [%] | Flea control rates (%) at 2 days after the application ([2]; dose 20 mg/kg) [%] | Flea control rates (%) at 30 days after the application ([2]; dose 20 mg/kg) [%] | Tick control rates (%) at 2 days after the application ([3]; dose 20 mg/kg) [%] | Mortality [6] [%] | Mortality [7] [%] | Mortality [8] [%]
CC(=O)NNc1cc(C2=NOC(c3cc(Cl)cc(Cl)c3)(C(F)(F)F)C2)ccc1Cl (stereo not drawn) [Comparative compound (52), N′-{5-[5-(3,5-dichlorophenyl)-5-trifluoromethyl-4,5-dihydroisoxazol-3-yl]-2-chlorophenyl}acetohydrazide, reference compound] | 29 | 58 | 74 | 26 | 68 | – | – | – | – | – | – | – | –
CN(NC(=O)C1CC1)c1cc(C2=NOC(c3cc(Cl)cc(Cl)c3)(C(F)(F)F)C2)ccc1Cl (stereo not drawn) [(2), N′-methyl-N′-{2-chloro-5-[5-(3,5-dichlorophenyl)-5-trifluoromethyl-4,5-dihydroisoxazol-3-yl]phenyl}cyclopropanecarbohydrazide] | – | – | – | – | – | ≥ 90 | – | – | – | – | – | – | –
O=C(NNc1cc(C2=NOC(c3cc(Cl)cc(Cl)c3)(C(F)(F)F)C2)ccc1Cl)C1CC1 (stereo not drawn) [Compound (1), N′-{2-chloro-5-[5-(3,5-dichlorophenyl)-5-trifluoromethyl-4,5-dihydroisoxazol-3-yl]phenyl}cyclopropanecarbohydrazide] | 100 | 92 | 84 | 100 | 94 | – | 100 | 96 | 94 | 100 | ≥ 90 | ≥ 70 | ≥ 90
